Data taken from PubChem BioAssay (NCI).
“And” between values parts separate entries of the source, which are not always exact repeats. Equal values may be shown once.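 Test compounds were applied to cells in 96-well plates for 48 hours at 5 doses. At the GI50, growth is halved. TGI denotes the concentration required for complete inhibition of growth.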

Columns and labels:
Experiment in all cases: growth of human tumour cells (NCI), 48 h
HOP-92 NSCLC = tested on: HOP-92 NSCLC
SNB-75 CNS = tested on: SNB-75 CNS
HL-60(TB) leukemia = tested on: HL-60(TB) leukemia
CCRF-CEM leukemia = tested on: CCRF-CEM leukemia
MOLT-4 leukemia = tested on: MOLT-4 leukemia
SR leukemia = tested on: SR leukemia
LXFL 529 NSCLC = tested on: LXFL 529 NSCLC
RPMI-8226 leukemia = tested on: RPMI-8226 leukemia
LOX IMVI melanoma = tested on: LOX IMVI melanoma
UACC-62 melanoma = tested on: UACC-62 melanoma
K-562 leukemia = tested on: K-562 leukemia
HCT-15 colon = tested on: HCT-15 colon
SK-MEL-2 melanoma = tested on: SK-MEL-2 melanoma
KM12 colon = tested on: KM12 colon
OVCAR-4 ovarian = tested on: OVCAR-4 ovarian
SW-620 colon = tested on: SW-620 colon
MALME-3M melanoma = tested on: MALME-3M melanoma
HOP-18 NSCLC = tested on: HOP-18 NSCLC
HT29 colon = tested on: HT29 colon
NCI-H226 lung = tested on: NCI-H226 lung
COLO 205 colon = tested on: COLO 205 colon
OVCAR-3 ovarian = tested on: OVCAR-3 ovarian
SNB-19 CNS = tested on: SNB-19 CNS
M14 melanoma = tested on: M14 melanoma
SN12C renal = tested on: SN12C renal
HOP-62 NSCLC = tested on: HOP-62 NSCLC
SF-295 CNS = tested on: SF-295 CNS
DMS 273 small cell lung = tested on: DMS 273 small cell lung
HCC-2998 colon = tested on: HCC-2998 colon
KM20L2 colon = tested on: KM20L2 colon
UACC-257 melanoma = tested on: UACC-257 melanoma
CAKI-1 renal = tested on: CAKI-1 renal
NCI-H460 lung = tested on: NCI-H460 lung
M19-MEL melanoma = tested on: M19-MEL melanoma
OVCAR-5 ovarian = tested on: OVCAR-5 ovarian
UO-31 renal = tested on: UO-31 renal
OVCAR-8 ovarian = tested on: OVCAR-8 ovarian
HCT-116 colon = tested on: HCT-116 colon
U251 CNS = tested on: U251 CNS
RXF 393 renal = tested on: RXF 393 renal
SK-MEL-5 melanoma = tested on: SK-MEL-5 melanoma
NCI-H23 lung = tested on: NCI-H23 lung
SF-268 CNS = tested on: SF-268 CNS
IGROV1 ovarian = tested on: IGROV1 ovarian
SK-OV-3 ovarian = tested on: SK-OV-3 ovarian
ACHN renal = tested on: ACHN renal
SF-539 CNS = tested on: SF-539 CNS
SK-MEL-28 melanoma = tested on: SK-MEL-28 melanoma
DLD-1 colon = tested on: DLD-1 colon
NCI-H522 lung = tested on: NCI-H522 lung
DMS 114 small cell lung = tested on: DMS 114 small cell lung
A498 renal = tested on: A498 renal
EKVX NSCLC = tested on: EKVX NSCLC
SNB-78 CNS = tested on: SNB-78 CNS
TK-10 renal = tested on: TK-10 renal
A549 NSCLC = tested on: A549 NSCLC
786-0 renal = tested on: 786-0 renal
XF 498 CNS = tested on: XF 498 CNS

N#Cc1c(-c2ccccc2)cc(-c2ccccc2)n(C2OC(CO)C(O)C(O)C2O)c1=O (stereo not drawn)
GI50 (HOP-92 NSCLC): 88.4 µM and 31.9 µM | TGI (HOP-92 NSCLC): > 100 µM | GI50 (SNB-75 CNS): 34.4 µM and 14.5 µM | TGI (SNB-75 CNS): > 100 µM and 80.9 µM | TGI (HL-60(TB) leukemia): > 100 µM | TGI (CCRF-CEM leukemia): > 100 µM | TGI (MOLT-4 leukemia): > 100 µM | TGI (SR leukemia): > 100 µM | TGI (LXFL 529 NSCLC): > 100 µM | TGI (RPMI-8226 leukemia): > 100 µM | TGI (LOX IMVI melanoma): > 100 µM | TGI (UACC-62 melanoma): > 100 µM | TGI (K-562 leukemia): > 100 µM

O=C(Nc1cccc(C(F)(F)F)c1)c1cc(-c2ccccc2)nc(=S)[nH]1
TGI (HCT-15 colon): > 100 µM | TGI (SK-MEL-2 melanoma): > 100 µM | TGI (KM12 colon): > 100 µM | TGI (HOP-92 NSCLC): > 100 µM | TGI (OVCAR-4 ovarian): > 100 µM | TGI (SW-620 colon): > 100 µM | TGI (MALME-3M melanoma): > 100 µM | TGI (HOP-18 NSCLC): > 100 µM | TGI (HT29 colon): > 100 µM | TGI (NCI-H226 lung): > 100 µM | TGI (COLO 205 colon): > 100 µM | TGI (OVCAR-3 ovarian): > 100 µM | TGI (SNB-19 CNS): > 100 µM | TGI (M14 melanoma): > 100 µM | TGI (HL-60(TB) leukemia): > 100 µM | TGI (SN12C renal): > 100 µM | TGI (HOP-62 NSCLC): > 100 µM | TGI (SR leukemia): > 100 µM | TGI (SF-295 CNS): > 100 µM | TGI (LXFL 529 NSCLC): > 100 µM | TGI (DMS 273 small cell lung): > 100 µM | TGI (HCC-2998 colon): > 100 µM | TGI (KM20L2 colon): > 100 µM | TGI (UACC-257 melanoma): > 100 µM | TGI (CAKI-1 renal): > 100 µM | TGI (NCI-H460 lung): > 100 µM | TGI (M19-MEL melanoma): > 100 µM | TGI (OVCAR-5 ovarian): > 100 µM | TGI (LOX IMVI melanoma): > 100 µM | TGI (UO-31 renal): > 100 µM | TGI (OVCAR-8 ovarian): > 100 µM | TGI (HCT-116 colon): > 100 µM

COc1c(Cl)c(Cl)c(OC)c2c1C(=O)C=CC2=O
TGI (HCT-15 colon): > 100 µM | TGI (U251 CNS): 40.4 µM | TGI (SK-MEL-2 melanoma): 33.9 µM | TGI (KM12 colon): 32.2 µM | TGI (HOP-92 NSCLC): 28.8 µM | TGI (OVCAR-4 ovarian): 28.9 µM | TGI (SW-620 colon): 31.2 µM | TGI (MALME-3M melanoma): 29.5 µM | TGI (HOP-18 NSCLC): > 100 µM | TGI (SNB-75 CNS): 80 µM | TGI (HT29 colon): 87.2 µM | TGI (RXF 393 renal): 30.9 µM | TGI (NCI-H226 lung): > 100 µM | TGI (COLO 205 colon): 31.7 µM | TGI (OVCAR-3 ovarian): 31.6 µM | TGI (SK-MEL-5 melanoma): > 100 µM | TGI (SNB-19 CNS): > 100 µM | TGI (M14 melanoma): 43.3 µM | TGI (NCI-H23 lung): > 100 µM | TGI (HL-60(TB) leukemia): 5.09 µM | TGI (CCRF-CEM leukemia): 53.5 µM | TGI (SF-268 CNS): 30.6 µM | TGI (SN12C renal): 62.2 µM | TGI (MOLT-4 leukemia): 46.7 µM | TGI (SR leukemia): 42.9 µM | TGI (IGROV1 ovarian): 56.9 µM | TGI (SK-OV-3 ovarian): > 100 µM | TGI (SF-295 CNS): 48.8 µM | TGI (ACHN renal): 29.2 µM | TGI (SF-539 CNS): 41.2 µM | TGI (LXFL 529 NSCLC): 29.3 µM | TGI (DMS 273 small cell lung): 31.5 µM | TGI (SK-MEL-28 melanoma): 34.7 µM | TGI (HCC-2998 colon): > 100 µM | TGI (DLD-1 colon): 29.5 µM | TGI (KM20L2 colon): > 100 µM | TGI (NCI-H522 lung): 31.7 µM | TGI (UACC-257 melanoma): 35.4 µM | TGI (DMS 114 small cell lung): 29.7 µM | TGI (A498 renal): > 100 µM | TGI (EKVX NSCLC): 31.8 µM | TGI (CAKI-1 renal): 59.1 µM | TGI (NCI-H460 lung): > 100 µM | TGI (M19-MEL melanoma): 32.3 µM | TGI (SNB-78 CNS): 26.7 µM | TGI (RPMI-8226 leukemia): 73.1 µM | TGI (TK-10 renal): 41.9 µM | TGI (OVCAR-5 ovarian): > 100 µM | TGI (LOX IMVI melanoma): 30.2 µM | TGI (UO-31 renal): 31.7 µM | TGI (OVCAR-8 ovarian): 32.1 µM | TGI (A549 NSCLC): > 100 µM | TGI (786-0 renal): 31.3 µM | TGI (XF 498 CNS): 31 µM | TGI (HCT-116 colon): 31.6 µM | TGI (UACC-62 melanoma): 30.4 µM | TGI (K-562 leukemia): 64.4 µM

CN(Cc1ccccc1)C1(N(C)Cc2ccccc2)CC1
TGI (HCT-15 colon): > 100 µM | TGI (U251 CNS): > 100 µM | TGI (SK-MEL-2 melanoma): > 100 µM | TGI (KM12 colon): > 100 µM | TGI (HOP-92 NSCLC): > 100 µM | TGI (OVCAR-4 ovarian): > 100 µM | TGI (SW-620 colon): > 100 µM | TGI (MALME-3M melanoma): > 100 µM | TGI (HOP-18 NSCLC): > 100 µM | TGI (SNB-75 CNS): > 100 µM | TGI (HT29 colon): > 100 µM | TGI (RXF 393 renal): > 100 µM | TGI (NCI-H226 lung): > 100 µM | TGI (COLO 205 colon): > 100 µM | TGI (OVCAR-3 ovarian): > 100 µM | TGI (SK-MEL-5 melanoma): > 100 µM | TGI (SNB-19 CNS): > 100 µM | TGI (M14 melanoma): > 100 µM | TGI (NCI-H23 lung): > 100 µM | TGI (HL-60(TB) leukemia): > 100 µM | TGI (CCRF-CEM leukemia): > 100 µM | TGI (SF-268 CNS): > 100 µM | TGI (SN12C renal): > 100 µM | TGI (MOLT-4 leukemia): > 100 µM | TGI (HOP-62 NSCLC): > 100 µM | TGI (IGROV1 ovarian): > 100 µM | TGI (SK-OV-3 ovarian): > 100 µM | TGI (SF-295 CNS): > 100 µM | TGI (ACHN renal): > 100 µM | TGI (SF-539 CNS): > 100 µM | TGI (LXFL 529 NSCLC): > 100 µM | TGI (DMS 273 small cell lung): > 100 µM | TGI (SK-MEL-28 melanoma): > 100 µM | TGI (HCC-2998 colon): > 100 µM | TGI (DLD-1 colon): > 100 µM | TGI (KM20L2 colon): > 100 µM | TGI (NCI-H522 lung): > 100 µM | TGI (UACC-257 melanoma): > 100 µM | TGI (DMS 114 small cell lung): > 100 µM | TGI (A498 renal): > 100 µM | TGI (EKVX NSCLC): > 100 µM | TGI (CAKI-1 renal): > 100 µM | TGI (NCI-H460 lung): > 100 µM | TGI (M19-MEL melanoma): > 100 µM | TGI (SNB-78 CNS): > 100 µM | TGI (TK-10 renal): > 100 µM | TGI (OVCAR-5 ovarian): > 100 µM | TGI (LOX IMVI melanoma): > 100 µM | TGI (UO-31 renal): > 100 µM | TGI (OVCAR-8 ovarian): > 100 µM | TGI (A549 NSCLC): > 100 µM | TGI (786-0 renal): > 100 µM | TGI (XF 498 CNS): > 100 µM | TGI (HCT-116 colon): > 100 µM | TGI (UACC-62 melanoma): > 100 µM | TGI (K-562 leukemia): > 100 µM
